Results: ChEMBL document CHEMBL3797190, “Development of 3,5-Dinitrobenzylsulfanyl-1,3,4-oxadiazoles and Thiadiazoles as Selective Antitubercular Agents Active Against Replicating and Nonreplicating Mycobacterium tuberculosis” (J Med Chem, 2016)
≈ marks a conversion by molar mass, not a printed value.

Columns and labels:
Type in all cases: functional
Mycobacterium kansasii [1] = test: Antimycobacterial activity against Mycobacterium kansasii CNCTC My 235/80 after 21 days by microdilution method; details: CNCTC My 235/80, 504 h
Mycobacterium kansasii [2] = test: Antimycobacterial activity against Mycobacterium kansasii CNCTC My 6509/96 after 21 days by microdilution method; details: CNCTC My 6509/96, 504 h
[3] = tested on: Mycobacterium tuberculosis; test: Antimycobacterial activity against Mycobacterium tuberculosis CNCTC My 331/88 after 14 days by microdilution method; details: CNCTC My 331/88, 336 h
Mycobacterium avium [4] = test: Antimycobacterial activity against Mycobacterium avium CNCTC My 330/88 after 14 days by microdilution method; details: CNCTC My 330/88, 336 h
[5] = tested on: Mycobacterium tuberculosis; test: Antimycobacterial activity against Mycobacterium tuberculosis CNCTC My 331/88 after 21 days by microdilution method; details: CNCTC My 331/88, 504 h
Mycobacterium avium [6] = test: Antimycobacterial activity against Mycobacterium avium CNCTC My 330/88 after 21 days by microdilution method; details: CNCTC My 330/88, 504 h
Mycobacterium kansasii [7] = test: Antimycobacterial activity against Mycobacterium kansasii CNCTC My 235/80 after 14 days by microdilution method; details: CNCTC My 235/80, 336 h
Mycobacterium kansasii [8] = test: Antimycobacterial activity against Mycobacterium kansasii CNCTC My 6509/96 after 14 days by microdilution method; details: CNCTC My 6509/96, 336 h
Mycobacterium kansasii [9] = test: Antimycobacterial activity against Mycobacterium kansasii CNCTC My 235/80 after 7 days by microdilution method; details: CNCTC My 235/80, 168 h
Mycobacterium kansasii [10] = test: Antimycobacterial activity against Mycobacterium kansasii CNCTC My 6509/96 after 7 days by microdilution method; details: CNCTC My 6509/96, 168 h

Compound | MIC99 (Mycobacterium kansasii [1]) | MIC99 (Mycobacterium kansasii [2]) | MIC99 [3] | MIC99 (Mycobacterium avium [4]) | MIC99 [5] | MIC99 (Mycobacterium avium [6]) | MIC99 (Mycobacterium kansasii [7]) | MIC99 (Mycobacterium kansasii [8]) | MIC99 (Mycobacterium kansasii [9]) | MIC99 (Mycobacterium kansasii [10])
O=[N+]([O-])c1cc(CSc2nnc(-c3ccc(O)cc3)o2)cc([N+](=O)[O-])c1 | 16 µM (≈ 5.99 µg/mL) | 16 µM (≈ 5.99 µg/mL) | 1 µM (≈ 0.374 µg/mL) | 62 µM (≈ 23.2 µg/mL) | 1 µM (≈ 0.374 µg/mL) | 62 µM (≈ 23.2 µg/mL) | 8 µM (≈ 2.99 µg/mL) | 8 µM (≈ 2.99 µg/mL) | 4 µM (≈ 1.5 µg/mL) | 4 µM (≈ 1.5 µg/mL)
Nc1cc(CSc2nnc(-c3ccc([N+](=O)[O-])cc3)s2)cc([N+](=O)[O-])c1 | 250 µM (≈ 97.4 µg/mL) | 250 µM (≈ 97.4 µg/mL) | 125 µM (≈ 48.7 µg/mL) | 250 µM (≈ 97.4 µg/mL) | 125 µM (≈ 48.7 µg/mL) | 250 µM (≈ 97.4 µg/mL) | 250 µM (≈ 97.4 µg/mL) | 250 µM (≈ 97.4 µg/mL) | 250 µM (≈ 97.4 µg/mL) | 250 µM (≈ 97.4 µg/mL)
O=[N+]([O-])c1ccc(-c2nnc(SCc3cc([N+](=O)[O-])cc(C(F)(F)F)c3)o2)cc1 | 32 µM (≈ 13.6 µg/mL) | 32 µM (≈ 13.6 µg/mL) | 32 µM (≈ 13.6 µg/mL) | > 500 µM | 32 µM (≈ 13.6 µg/mL) | > 500 µM | 32 µM (≈ 13.6 µg/mL) | 32 µM (≈ 13.6 µg/mL) | 16 µM (≈ 6.82 µg/mL) | 16 µM (≈ 6.82 µg/mL)
O=[N+]([O-])c1ccc(CSc2nnc(-c3ccncc3)o2)c([N+](=O)[O-])c1 | 32 µM (≈ 11.5 µg/mL) | 32 µM (≈ 11.5 µg/mL) | 8 µM (≈ 2.87 µg/mL) | 62 µM (≈ 22.3 µg/mL) | 8 µM (≈ 2.87 µg/mL) | 62 µM (≈ 22.3 µg/mL) | 32 µM (≈ 11.5 µg/mL) | 32 µM (≈ 11.5 µg/mL) | 16 µM (≈ 5.75 µg/mL) | 32 µM (≈ 11.5 µg/mL)
Cc1ccc(-c2nnc(SCc3cc([N+](=O)[O-])cc([N+](=O)[O-])c3)s2)cc1 | 1 µM (≈ 0.388 µg/mL) | 2 µM (≈ 0.777 µg/mL) | 0.125 µM (≈ 0.0486 µg/mL) | > 125 µM | 0.125 µM (≈ 0.0486 µg/mL) | > 125 µM | 0.5 µM (≈ 0.194 µg/mL) | 1 µM (≈ 0.388 µg/mL) | 0.5 µM (≈ 0.194 µg/mL) | 0.5 µM (≈ 0.194 µg/mL)
Cc1nnc(SCc2cc([N+](=O)[O-])cc([N+](=O)[O-])c2)o1 | 16 µM (≈ 4.74 µg/mL) | 32 µM (≈ 9.48 µg/mL) | 4 µM (≈ 1.19 µg/mL) | 500 µM (≈ 148 µg/mL) | 8 µM (≈ 2.37 µg/mL) | 500 µM (≈ 148 µg/mL) | 8 µM (≈ 2.37 µg/mL) | 16 µM (≈ 4.74 µg/mL) | 4 µM (≈ 1.19 µg/mL) | 16 µM (≈ 4.74 µg/mL)
O=[N+]([O-])c1ccc(CSc2nnc(-c3ccc([N+](=O)[O-])cc3)o2)cc1 | 250 µM (≈ 89.6 µg/mL) | 62 µM (≈ 22.2 µg/mL) | 250 µM (≈ 89.6 µg/mL) | 250 µM (≈ 89.6 µg/mL) | 250 µM (≈ 89.6 µg/mL) | 250 µM (≈ 89.6 µg/mL) | 250 µM (≈ 89.6 µg/mL) | 62 µM (≈ 22.2 µg/mL) | 250 µM (≈ 89.6 µg/mL) | 62 µM (≈ 22.2 µg/mL)
O=[N+]([O-])c1cc(CSc2nnc(-c3ccc(Cl)cc3)s2)cc(C(F)(F)F)c1 | > 32 µM | > 32 µM | > 32 µM | > 500 µM | > 32 µM | > 500 µM | > 32 µM | > 32 µM | > 32 µM | > 32 µM
Cc1ccc(-c2nnc(SCc3cc([N+](=O)[O-])cc(C(F)(F)F)c3)s2)cc1 | > 32 µM | > 32 µM | > 32 µM | > 500 µM | > 32 µM | > 500 µM | > 32 µM | > 32 µM | > 32 µM | > 32 µM
O=[N+]([O-])c1cc(CSc2nnc(-c3ccncc3)s2)cc([N+](=O)[O-])c1 | 1 µM (≈ 0.375 µg/mL) | 1 µM (≈ 0.375 µg/mL) | 0.125 µM (≈ 0.0469 µg/mL) | > 125 µM | 0.125 µM (≈ 0.0469 µg/mL) | > 125 µM | 1 µM (≈ 0.375 µg/mL) | 1 µM (≈ 0.375 µg/mL) | 0.5 µM (≈ 0.188 µg/mL) | 0.5 µM (≈ 0.188 µg/mL)
O=[N+]([O-])c1cc(CSc2nnc(-c3ccncc3)o2)cc([N+](=O)[O-])c1 | 2 µM (≈ 0.719 µg/mL) | 4 µM (≈ 1.44 µg/mL) | 0.5 µM (≈ 0.18 µg/mL) | 62 µM (≈ 22.3 µg/mL) | 0.5 µM (≈ 0.18 µg/mL) | 62 µM (≈ 22.3 µg/mL) | 2 µM (≈ 0.719 µg/mL) | 2 µM (≈ 0.719 µg/mL) | 1 µM (≈ 0.359 µg/mL) | 2 µM (≈ 0.719 µg/mL)
Cc1cc(C)cc(-c2nnc(SCc3cc([N+](=O)[O-])cc([N+](=O)[O-])c3)s2)c1 | 1 µM (≈ 0.402 µg/mL) | 0.5 µM (≈ 0.201 µg/mL) | 0.125 µM (≈ 0.0503 µg/mL) | > 16 µM | 0.125 µM (≈ 0.0503 µg/mL) | > 16 µM | 1 µM (≈ 0.402 µg/mL) | 0.5 µM (≈ 0.201 µg/mL) | 0.25 µM (≈ 0.101 µg/mL) | 0.25 µM (≈ 0.101 µg/mL)
